Test results reported in ChEMBL document CHEMBL4725331, “An investigative study of antitumor properties of a novel thiazolo[4,5-d]pyrimidine small molecule revealing superior antitumor activity with CDK1 selectivity and potent pro-apoptotic properties” (Bioorg Med Chem, 2020).

Key:
Type in all cases: functional
HCT-116 [1] = assay: Induction of apoptosis in human HCT116 cells assessed as decrease in Bcl2 gene expression by RT-PCR analysis relative to untreated control
SF-268 = assay: Antiproliferative activity against human SF-268 cells assessed as inhibition of cell growth at 10 uM measured after 48 hrs by SRB assay relative to control
PC-3 = assay: Antiproliferative activity against human PC-3 cells assessed as inhibition of cell growth at 10 uM measured after 48 hrs by SRB assay relative to control
NCI-H226 = assay: Antiproliferative activity against human NCI-H226 cells assessed as inhibition of cell growth measured after 48 hrs by SRB assay
HCC 2998 = assay: Antiproliferative activity against human HCC 2998 cells assessed as inhibition of cell growth measured after 48 hrs by SRB assay
KM12 = assay: Antiproliferative activity against human KM12 cells assessed as inhibition of cell growth measured after 48 hrs by SRB assay
HCT-15 = assay: Antiproliferative activity against human HCT-15 cells assessed as inhibition of cell growth measured after 48 hrs by SRB assay
SF-539 = assay: Antiproliferative activity against human SF-539 cells assessed as inhibition of cell growth measured after 48 hrs by SRB assay
U-251 = assay: Antiproliferative activity against human U-251 cells assessed as inhibition of cell growth measured after 48 hrs by SRB assay
LOX IMVI = assay: Antiproliferative activity against human LOX IMVI cells assessed as inhibition of cell growth measured after 48 hrs by SRB assay
UACC-257 = assay: Antiproliferative activity against human UACC-257 cells assessed as inhibition of cell growth measured after 48 hrs by SRB assay
UACC-62 = assay: Antiproliferative activity against human UACC-62 cells assessed as inhibition of cell growth measured after 48 hrs by SRB assay
IGROV-1 = assay: Antiproliferative activity against human IGROV-1 cells assessed as inhibition of cell growth measured after 48 hrs by SRB assay
SK-OV-3 = assay: Antiproliferative activity against human SK-OV-3 cells assessed as inhibition of cell growth measured after 48 hrs by SRB assay
TK-10 = assay: Antiproliferative activity against human TK-10 cells assessed as inhibition of cell growth measured after 48 hrs by SRB assay
MDA-MB-231 = assay: Antiproliferative activity against human MDA-MB-231 cells assessed as inhibition of cell growth measured after 48 hrs by SRB assay
MDA-MB-468 = assay: Antiproliferative activity against human MDA-MB-468 cells assessed as inhibition of cell growth measured after 48 hrs by SRB assay
HCT-116 [2] = assay: Induction of apoptosis in human HCT116 cells assessed as increase in p53 gene expression by RT-PCR analysis relative to untreated control
[3] = read-out: LC50 (the source's name)

For `COc1ccc(-n2c(=S)sc3c(Cl)nc(C)nc32)c(OC)c1`, the “fold change (FC)” value (HCT-116 [1]) was 3.64, the inhibition at 10 µM (SF-268) was > 50% and the inhibition at 10 µM (PC-3) was > 50%. It also gave a GI50 (NCI-H226) of 3.24 µM, a TGI (NCI-H226) of 12 µM and a CC50 (NCI-H226; [3]) of 44.7 µM. For the same compound, the GI50 (HCC 2998) was 16.2 µM, the TGI (HCC 2998) was 30.9 µM and the CC50 (HCC 2998; [3]) was 58.9 µM. The GI50 (KM12) was 3.31 µM, the TGI (KM12) was 11.5 µM and the CC50 (KM12; [3]) was 37.1 µM. It also gave a GI50 (HCT-15) of 1.95 µM, a TGI (HCT-15) of 5.37 µM and a CC50 (HCT-15; [3]) of 41.7 µM. The GI50 (SF-539) was 2.09 µM, the TGI (SF-539) was 4.57 µM and the CC50 (SF-539; [3]) was 10 µM. It also gave a GI50 (U-251) of 1.91 µM, a TGI (U-251) of 3.63 µM and a CC50 (U-251; [3]) of 6.92 µM. For the same compound, the GI50 (LOX IMVI) was 1.7 µM, the TGI (LOX IMVI) was 3.16 µM and the CC50 (LOX IMVI; [3]) was 6.03 µM. For the same compound, the GI50 (UACC-257) was 2.34 µM, the TGI (UACC-257) was 5.62 µM and the CC50 (UACC-257; [3]) was 18.2 µM. For the same compound, the GI50 (UACC-62) was 2.04 µM, the TGI (UACC-62) was 4.68 µM and the CC50 (UACC-62; [3]) was 12 µM. The GI50 (IGROV-1) was 1.95 µM, the TGI (IGROV-1) was 3.98 µM and the CC50 (IGROV-1; [3]) was 8.32 µM. It also gave a GI50 (SK-OV-3) of 14.1 µM, a TGI (SK-OV-3) of 27.5 µM and a CC50 (SK-OV-3; [3]) of 52.5 µM. For the same compound, the GI50 (TK-10) was 4.68 µM, the TGI (TK-10) was 18.6 µM and the CC50 (TK-10; [3]) was 58.9 µM. The GI50 (MDA-MB-231) was 3.16 µM, the TGI (MDA-MB-231) was 10.2 µM and the CC50 (MDA-MB-231; [3]) was 34.7 µM. For the same compound, the GI50 (MDA-MB-468) was 2 µM, the TGI (MDA-MB-468) was 6.61 µM and the CC50 (MDA-MB-468; [3]) was 93.3 µM. For the same compound, the “fold change (FC)” value (HCT-116 [2]) was 13.1.
